Earlier results on 3 molecules are cited in patent publication US6924273B2, “Chondroprotective/restorative compositions and methods of use thereof” (priority 2000, dated 2005).

For series [1] the following is noted: oral administration.
The conditions of series [2]: oral administration. The source holds these as a separate data set.
For a further series, the system named is mice. Conditions: 5000 mg/kg orally.
In the next series the test system is rats. Particulars: 5000 mg/kg orally.

Turning to `N[C@H]1C(O)O[C@H](CO)[C@@H](O)[C@@H]1O` (some centres unmarked) [Glucosamine], the solubility in water result is recorded as “very soluble in water”.

Consider Chondroitin sulfate [CS], for which the bioavailability entry in series [1] is listed as “around 15%”.

On to `N[C@H]1C(O)O[C@H](CO)[C@@H](O)[C@@H]1O.O=S(=O)(O)O` (some centres unmarked) [Glucosamine sulfate], for which, in series [2], the absorbed entry is on record as “greater than 90%”. Besides, the “mortality (no LD50 established)” value in the series with mice and in the series with rats was “no mortality” throughout.
